Experiments:
[1] = Inhibition of mouse Hepa-1c1c7 cells by MTT assay; assay type: cell-based
[2] = Inhibition of 7,12-dimethylbenz[a]anthracene-induced preneoplastic lesions in a mouse mammary gland culture at 10 ug/mL; assay type: functional
[3] = Chemoprevention index, ratio of IC50 for mouse Hepa-1c1c7 cells to drug level required to double NADPH:quinone reductase activity in mouse Hepa-1c1c7 cells; assay type: functional
tissue or blood = conditions: Mus musculus, Mammary gland, read-out: INH
Description: Inhibition of 7,12-dimethylbenz[a]anthracene-induced preneoplastic lesions in a mouse mammary gland culture at 1 ug/mL

Compound	IC50 [1]	inhibition at 10 µg/mL [2]	Ratio [3]	inhibition at 1 µg/mL (tissue or blood)
COc1cc2c(cc1OC)-c1c(oc3c4c(cc(O)c3c1=O)OC(C)(C)C=C4)CO2	> 47 µM	19%	–	–
COc1cc2c(cc1OC)[C@]1(O)C(=O)c3c(O)cc4c(c3O[C@@H]1CO2)C=CC(C)(C)O4	> 47 µM	60%	–	–
COc1cc(O)c2c(c1/C=C/C(C)=O)O[C@H](c1ccccc1)CC2=O	> 14.9 µM	0%	>1.4	–
COc1cc2c(cc1OC)[C@]1(O)C(=O)c3c(O)cc4c(c3O[C@@H]1CO2)C(OC)C(O)C(C)(C)O4 (stereo partly drawn)	9.1 µM	–	1.4	–
COc1cc(-c2cc(=O)c3c(O)cc(O)cc3o2)ccc1O [CHRYSOERIOL]	36 µM	–	3.1	–
O=c1c(-c2ccc(O)cc2)coc2cc(O)cc(O)c12 [GENISTEIN]	45.2 µM	–	2	–
O=C(/C=C/c1ccc(O)cc1)c1ccc(O)cc1O [ISOLIQUIRITIGENIN]	36.3 µM	76%	10.1	–
C[S+]([O-])CCCCN=C=S (stereo not drawn) [SULFORAPHANE]	11 µM	–	25	83.7%
C=C(C)[C@H]1Cc2c(cc(O)c3c2O[C@@H]2COc4cc(OC)c(OC)cc4[C@@H]2C3=O)O1 [SUMATROL]	> 47 µM	49.9%	–	–
COc1cc2c(cc1OC)[C@@H]1C(=O)c3c(O)cc4c(c3O[C@@H]1CO2)C=CC(C)(C)O4 [TOXICAROL]	> 47 µM	80%	–	–
